As a reminder, the AUC(0-t) is exposure summed from dosing to a finite time, without extrapolation to infinity. One may read the Cmax as the highest concentration seen after dosing. In general, half-life refers to how long it takes for the measured level to halve. As a reminder, the Tmax is the time from dosing to the highest level. As a reminder, the bioavailability is dose-corrected exposure relative to a reference, in per cent. Read a high bioavailability as much systemic uptake.

Like-named read-outs stand apart in the source and are kept apart here.

Data set [1] can be described thus: Snapshot (5 h) PK study with/without EA and 1-ABT. In kind it is in vivo. Particulars: male, CD-1, mouse, plasma, ip, 10 mg/kg, CD-1 mice, 10 mg/kg i.p. The protocol:
In the 5 h PK study investigating the effect of co-dosing EA and 1-ABT, two cohorts of male CD-1 mice (6–8 weeks old, 20–30 g) were dosed via intraperitoneal (i.p.) administration of compound 2 (10 mg/kg) as a 10 mL/kg volume of a 1.0 mg/mL solution in DMSO/PEG-400/saline (v/v/v, 10:30:60). EA (30 mg/kg) was administered i.p. as a 1.0 mL/kg volume of a 30 mg/mL solution in NMP/PEG-400/water (v/v/v, 10:60:30) as a 6 h pretreatment and again at the time of dosing with compound 2. 1-ABT (100 mg/kg) was administered p.o. as a 10 mL/kg volume of a 10 mg/mL solution in saline as a 2 h pretreatment. No co-treatment with EA or 1-ABT was applied to the first cohort. Co-treatment with EA (30 mg/kg) and 1-ABT (100 mg/kg) was applied in the second cohort. Two mice were dosed in each cohort. The mice had free access to water and food. Blood (0.03 mL) was collected from the dorsal metatarsal vein at 0.5, 1, 3, and 5 h time points. Each blood sample was transferred into a plastic microcentrifuge tube containing EDTA-K2 anticoagulant. Blood samples were centrifuged at 4000× g for 5 min at 4 °C to obtain plasma. The samples were stored in a freezer at −75 ± 15 °C prior to analysis. Plasma samples from the two mice from each cohort and each time point were pooled together for analysis. At 5 h post dose administration, the mice were anesthetized using increasing concentrations of CO2, and lung samples were collected. Lung samples were quickly frozen in an ice box and stored at −75 ± 15 °C. Prior to analysis, all lung samples were weighed and homogenized with phosphate-buffered saline (PBS) in a lung weight (g)/buffer volume (mL) ratio of 1:3. The final compound concentration was calculated by multiplying the detected concentration by a dilution factor of four.
(§1) Concentrations of the test compound in the plasma samples were determined using a Prominence LC-MS/MS system with a DGU-20A5R(C) degasser, LC-30AD pump, CBM-20A system controller, SIL-20AC HT autosampler; Rack changer II, HALO 90A ES-CN (2.7 μm, 2.1 × 50 mm) column, and AB Sciex Triple Quan 5500 LC/MS/MS instrument. The mobile phase was 5–95% MeCN in H2O, with 0.1% formic acid. The desired serial concentrations of working solutions were achieved by diluting the stock solution of the analyte with 50% acetonitrile in water. A series of 10 µL working solutions […] were added to 10 μL of blank plasma or lung homogenate to achieve calibration standards of 0.5, 1, 2, 5, 10, 50, 100, 500, 1000 ng/mL in a total volume of 20 μL. A total of 5 quality control samples at 1 ng/mL, 2 ng/mL, 5 ng/mL, 100 ng/mL, and 800 ng/mL were prepared independently of those used for the calibration curves in the same manner. A 20 μL standard, 20 μL QC sample, and 20 μL of an unknown sample (10 µL plasma or lung homogenate with 10 µL blank solution) were added to 200 μL of acetonitrile containing internal standard mixture for precipitating protein. Then, the samples were vortexed for 30 s. After centrifugation at 4 °C and 4000 rpm for 15 min, the supernatant was diluted with ultrapure water at a ratio of 1:2 (v/v, 1:2), then 20 µL of diluted supernatant was injected into the LC/MS/MS system for quantitative analysis. PK parameters were calculated from the mean plasma concentration versus time using a noncompartmental model in WinNonlin Phoenix version 8.3.

Another data set is described as follows: 24 h PK study in mice. Particulars: for concentration at 24 h: mouse, CD-1 mice, below limit of quantification, read-out: plasma concentration at the 24 h time point. Type of data set: in vivo, CD-1 mice. The protocol: In the 24 h PK study, male CD-1 mice (6–8 weeks old, 20–30 g) were dosed by intravenous (i.v.), oral (p.o.), or intraperitoneal (i.p.) administration of compound 2. For i.v. administration, a single dose of compound 2 (3 mg/kg) was administered as 5 mL/kg of a 0.6 mg/mL solution in DMSO/PEG-400/Water (v/v/v, 10:30:60) to six mice. For p.o. administration, a single dose of compound 2 (10 mg/kg) was administered as 10 mL/kg of a 1 mg/mL solution in DMSO/PEG-400/Water (v/v/v, 10:30:60) to six mice. For i.p. administration, a single dose of compound 2 (10 mg/kg) was administered as 10 mL/kg of a 1 mg/mL solution in DMSO/PEG-400/Water (v/v/v, 10:30:60) to six mice. The mice had free access to water and food. At 0.083, 0.25, 0.5, 1, 2, 4, 8, 12, and 24 h post dose administration, 0.03 mL of blood was collected from the dorsal metatarsal vein of three mice at each time point. Each blood sample was transferred into a plastic microcentrifuge tube containing EDTA-K2 anticoagulant and mixed well with the anticoagulant then placed on ice prior to centrifugation at 4000× g for 5 min at 4 °C to obtain plasma. The samples were stored in a freezer at −75 ± 15 °C prior to analysis. At 12 h post dose administration and 24 h post dose administration, three mice were anesthetized using increasing concentrations of CO2, and lung samples were collected. Lung samples were quickly frozen in an ice box and stored at −75 ± 15 °C. Prior to analysis, all lung samples were weighed and homogenized with phosphate-buffered saline (PBS) in a lung weight (g)/buffer volume (mL) ratio of 1:3. The final concentration of the compound was calculated by multiplying the detected concentration by a dilution factor of four.
as §1

Where [2] appears, read: with both EA (30 mg/kg) and 1-ABT (100 mg/kg).
The mark [3] stands for this setting: male, ip, CD-1 mouse plasma, 10 mg/kg i.p.
Where [4] appears, read: male, iv, CD-1 mouse plasma, 3 mg/kg i.v.
[5] abbreviates: male, po, CD-1 mouse plasma, 10 mg/kg p.o.

As for `CCC(=O)Nc1cc(Nc2cc(NC3CC3)n3ncc(C#N)c3n2)c(F)cc1N1CCC[C@H](NC)C1` [Compound 2, (S)-N-(5-((3-cyano-7-(cyclopropylamino)pyrazolo[1,5-a]pyrimidin-5-yl)amino)-4-fluoro-2-(3-(methylamino)piperidin-1-yl)phenyl)propionamide], the exposure AUC(0-t) in data set [1] (no co-treatment) came out at 7.77 µM·h; in data set [1] (setting [2]), 10.1 µM·h; in “24 h PK study in mice” (setting [3]) it was 10.1 µM·h; in the data set “24 h PK study in mice” (setting [4]), 1.87 µM·h; in “24 h PK study in mice” (setting [5]) it was 3.13 µM·h. Also, the Cmax came to 3190 nM in data set [1] (no co-treatment), 3150 nM in data set [1] (setting [2]), 2650 nM in the data set “24 h PK study in mice” (setting [3]) and 563 nM in the data set “24 h PK study in mice” (setting [5]). The half-life in data set [1] (no co-treatment) was 2.5 h; in data set [1] (setting [2]), 3.7 h; in the data set “24 h PK study in mice” (setting [3]), 2.5 h; in the data set “24 h PK study in mice” (setting [4]), 1.9 h; in “24 h PK study in mice” (setting [5]), 2.1 h. The time to peak (Tmax) came out at 0.5 h in “24 h PK study in mice” (setting [3]) and 2.7 h in “24 h PK study in mice” (setting [5]). The Vd in the data set “24 h PK study in mice” (male, iv, CD-1 mouse plasma, 3 mg/kg i.v., read-out: Vdss) was determined as 3.5 L/kg. Moreover, the concentration at 24 h in the data set “24 h PK study in mice” (male, plasma, iv, 3 mg/kg i.v.) is less than 1.02 nM; in the data set “24 h PK study in mice” (male, plasma, po, 10 mg/kg p.o.), less than 1.02 nM. The molecule further showed a bioavailability in “24 h PK study in mice” (male, plasma, po, CD-1 mouse, 10 mg/kg p.o.) of 52%. Also, the lung concentrations result in the data set “24 h PK study in mice” (mice, 12 and 24 h post dose administration) is “accumulated in the lungs”.

Values taken from paper PMC11397024, “Strategic Fluorination to Achieve a Potent, Selective, Metabolically Stable, and Orally Bioavailable Inhibitor of CSNK2” (Molecules, 2024).
